Test results reported in patent US20130142883A1, “MEDICAL FOOD FOR THE DIETARY MANAGEMENT OF DEPRESSION AND ANXIETY AND METHODS THEREOF” (priority 2011, published 2013).

Key:
[1] = system: C57BI/6J mice; experiment: Sucrose preference test (anhedonia) under chronic stress; format: in vivo; details: young adult male mice; water one week before and during ten days of chronic stress; 10th day; Citalopram 15 mg/kg per day per os; mean±SEM
Procedure: Citalopram 15 mg/kg per day per os was used as the reference antidepressant drug. There was no difference between groups at baseline. At 10th day of the stress procedure, animals were tested on the sucrose preference, common test for assessment of anhedonia. Results are presented in Table 6 as mean±SEM percent of sucrose preference.

[2] = system: C57BI/6 mice; experiment: Dark-light box test after 14 days of drinking water; format: in vivo; details: three-months-old male mice; water ad libitum 14 days; Diazepam 2.5 mg/kg bolus 30 min prior the test; mean±SEM
Procedure: Bolus injection of anxiolytic drug Diazepam (2.5 mg/kg, 30 min prior the test) was used as a positive reference control.

SMILES	Sucrose preference [1] [%]	Time (time spent in the lit box) [2] [s]
CN(C)CCCC1(c2ccc(F)cc2)OCc2cc(C#N)ccc21 (centres unmarked) [Citalopram]	70.0 ± 3.0	
CN1C(=O)CN=C(c2ccccc2)c2cc(Cl)ccc21 [Diazepam]		155.2 ± 7.8
